This data set is described as follows: in vitro. Conditions: human, hela cells, % viability.

As for `CC(C)[C@@H](CO)Nc1nc(-c2ccc(S(C)(=O)=O)cc2)cnc1N` [CBK063750], the viability at 28.5 h, 10 µM was found to be 91.2%.
On the same count and under the same terms, for `CNCc1ccccc1Sc1cccc(OC)c1` [CBK026207C] the value was 103%; for `COc1cccc(C(=O)Nc2cnn(CCCC(=O)O)c2)c1` [CBK269879], 89.6%; for `CCCCN(C)S(=O)(=O)c1ccc(C(C)(C)CC)cc1` [CBK044836], 89.9%.
As to `Fc1ccc(-c2ccc(CNCCCN3CCOCC3)o2)cc1` [CBK278199C], the viability at 28.5 h, 10 µM worked out at 84.5%.
Same read-out and setting: for `CC(=O)Nc1ccc(CN[C@@H]2CCC[C@H]2Cc2cc(C)no2)cc1` [CBK285459] the value was 102%; for `CCOc1cc(CNCc2ccccn2)cc(Cl)c1OCC` [CBK268516C], 106%.
Still for that read-out and setting: for `CCOC(=O)c1cnn2c(O)cc(CN3CCc4ccccc4C3)nc12` [CBK305679] the value was 97.2%; for `Cc1cc(N2CCN(C(=O)CCc3ccco3)CC2)nc(C(C)C)n1` [CBK305367], 106%.
On the same count and under the same terms, for `CN1CCC(Cc2nc(-c3ccc(Cl)s3)n(CCO)n2)CC1` [CBK307025] the value was 100%; for `CC(=O)N1CC[C@H]2NC(=O)CNC(=O)C3(CCCC[C@H]2C1)CCN(C(=O)CN1CCCCC1)CC3` [CBK292120], 104%; for `Cc1ccc(S(=O)(=O)NCCSCc2cccc(Cl)c2)cc1[N+](=O)[O-]` [CBK264116], 93.4%.
Consider `CN(C)S(=O)(=O)c1ccc(-c2nn(-c3ccccc3)cc2/C=C(\C#N)c2nc3ccccc3c(=O)[nH]2)cc1` [CBK266266], for which the viability at 28.5 h, 10 µM stood at 101%.
Still for that read-out and setting: for `O=[N+]([O-])c1ccc(/C=N/Nc2nnc3c(n2)[nH]c2ccccc23)cc1` [CBK261486] the value was 97.8%.
Regarding `Cc1ccc(SC(C)C(=O)Nn2cnnc2)cc1` (centres unmarked) [CBK268570], the viability at 28.5 h, 10 µM turned out to be 93.3%.
Consider `CCc1cc2c(NC(CCSC)C(=O)O)nc(C)nc2s1` (centres unmarked) [CBK266709], for which the viability at 28.5 h, 10 µM turned out to be 90.3%.
For the compound `CC(=O)c1c(-c2ccc(C)cc2)nc2n(CCN3CCCCC3)c3ccccc3n12` [CBK278231C], the viability at 28.5 h, 10 µM turned out to be 101%.
The same measure, in the same setting: for `COCCNc1nc(-c2ccccc2)ccc1C(=O)Nc1cccc(OC)c1` [CBK105886] the value was 98.1%; for `CC1(C)CN=C(N2CCN(C3=NCC(C)(C)S3)CC2)S1` [CBK020461], 93.8%.
The same measure, in the same setting: for `CC(=O)N1CCC[C@@H]1C(=O)N1CC[C@@H]2NC(=O)[C@H](Cc3ccccc3)NC(=O)C3(C/C=C/C[C@@H]2C1)CCOCC3` [CBK292195] the value was 104%.
Same read-out and setting: for `COc1ccc(-c2nc(NC(=O)c3cnccn3)cnc2-c2ccc(F)cc2)cc1` [CBK037150] the value was 104%.
For `Cc1oc(S(=O)(=O)N(C)C)cc1C(=O)O` [CBK113681], the viability at 28.5 h, 10 µM was found to be 98.1%.
Same read-out and setting: for `O=C(N[C@@H]1CNCCC[C@H]1O)c1ccc(OCc2ccccc2)cc1` [CBK289064] the value was 100%.
The same measure, in the same setting: for `CC1=NNC(=O)C1C(c1ccc(Cl)cc1Cl)C1C(=O)NN=C1C` (centres unmarked) [CBK067756] the value was 109%.
As to `CC(=O)N1CCc2cc(C)ccc2C12CCN(CCCOc1ccccc1)CC2` [CBK081064], the viability at 28.5 h, 10 µM is 92.4%.
On the same count and under the same terms, for `COc1cccc(NC(=O)C2C(C(=O)O)C3C=CC2C32CC2)c1` (centres unmarked) [CBK287106] the value was 81.6%.
Same read-out and setting: for `O=C(Nc1ncnc2c1nc(OCc1ccccc1)n2C1CC(O)C(CO)O1)c1ccccc1` (centres unmarked) [CBK201220] the value was 95.3%; for `O=C(O)CCCn1c(=O)c2cc3c(=O)n(CCCC(=O)O)c(=O)c3cc2c1=O` [CBK265748], 93.1%.
For `CC1CN(c2cc(CO)c(F)cn2)CC2(CCOC2)O1` (centres unmarked) [CBK304772], the viability at 28.5 h, 10 µM came out at 93.8%.
For the compound `Cn1c(=O)c2[nH]c(NN=C3C(=O)NC(=O)NC3=O)nc2n(C)c1=O` [CBK262891], where the note is “bulk resorufin, single well”, the viability at 28.5 h, 10 µM was determined as 103%.
Turning to `CCOC(=O)c1sc2nc(C)ccc2c1N` [CBK115377], the viability at 28.5 h, 10 µM amounted to 96.5%.
The same measure, in the same setting: for `CCS(=O)(=O)CCNC(=O)c1cnc(N2CCCCC2)nc1C` [CBK307715] the value was 82.9%.
The same measure, in the same setting: for `CCc1noc(C)c1C(=O)N1CCN(C(C#N)C2CCCCC2)CC1` (centres unmarked) [CBK304916] the value was 88.8%; for `CCN(CC)C(=O)C1CCCN(C(=O)NCCc2c[nH]c3ccccc23)C1` (centres unmarked) [CBK156140], 99.8%; for `Brc1ccc2[nH]c3c(c2c1)CCNC31CCN(CCOc2ccccc2)C1` (centres unmarked) [CBK083578], 75.5%.
Turning to `Cc1nc(C2CCN(C(=O)CCc3ccno3)CC2)c2sccn12` [CBK282239], the viability at 28.5 h, 10 µM turned out to be 93.1%.
On the same count and under the same terms, for `COc1ccc(S(=O)(=O)NCc2ccccn2)cc1NC(C)=O` [CBK269554] the value was 103%; for `O=C(CCc1ccco1)N1CCCC1c1nc2ccccc2[nH]1` (centres unmarked) [CBK283767], 104%.
The same measure, in the same setting: for `CNC(=O)c1sc2ccccc2c1C1CCN(Cc2cnc(-c3ccc(C)cc3)nc2)C1` (centres unmarked) [CBK285883] the value was 108%; for `Cc1cccc(-c2n[nH]/c(=N/C(=O)c3ccccc3F)s2)c1` [CBK287957], 84.5%.
Same read-out and setting: for `Cc1cc(CN(C)Cc2ccc(-n3ccnc3C)cc2)n[nH]1` [CBK281989] the value was 97.6%; for `CC(=O)N1CCc2cc(-c3cc4c(C)cccn4c3)ccc21` [CBK285225], 96%.
Consider `O=C(NCCc1c[nH]cn1)c1ccccc1-n1cccc1` [CBK161000], for which the viability at 28.5 h, 10 µM is 92.4%.
Take `CS(=O)(=O)c1ccc(-c2cccc(COC3CCN(C(=O)Cc4ccc(C#N)cc4)CC3)c2)cc1` [CBK149513]: the viability at 28.5 h, 10 µM turned out to be 96.3%.
The same measure, in the same setting: for `O=C(NCCn1nc2c(cc1=O)CCCCC2)c1ccc(F)cc1` [CBK283279] the value was 93.3%; for `O=C(O)CCC(=O)Nc1nc(-c2ccc(Cl)cc2)cs1` [CBK299829], 86.8%; for `CC(C)C(=O)NC(NC(=S)Nc1cccc2cccnc12)C(Cl)(Cl)Cl` (centres unmarked) [CBK261051], 90%.
As to `CN(CC(=O)NCc1ccc2c(c1)OCO2)Cc1ccc(Br)s1` [CBK295185], the viability at 28.5 h, 10 µM was determined as 80.4%.
Still for that read-out and setting: for `O=C(c1cnc[nH]1)N1CCn2nc(C(O)Cc3ccccc3)cc2C1` (centres unmarked) [CBK307558] the value was 109%; for `O=C(NCCCc1ccccc1Cl)c1ccc(=O)n(CC(=O)N2CCCCC2)c1` [CBK286078], 85.9%.
With `CC(=O)c1c(C(C)=O)c(C)n(-c2ccc(C(=O)O)cc2)c1C` [CBK287036], the viability at 28.5 h, 10 µM stood at 90.9%.
Still for that read-out and setting: for `Cn1c(CN2CCN(C(=O)Nc3ccccc3)CC2)nc2cc([N+](=O)[O-])ccc21` [CBK268260] the value was 91.8%.
Still for that read-out and setting: for `Cc1c(Cl)cccc1NC(=O)CSc1nnc(Cc2cccc3ccccc23)n1-c1ccccc1` [CBK266042] the value was 98.7%.
On the same count and under the same terms, for `COC(=O)c1c(NC(=O)C2CC=CCC2C(=O)O)sc2c1CCC(c1ccccc1)C2` (centres unmarked) [CBK263683] the value was 94.8%; for `CCCC(=O)NCC1Cc2cc(F)cc(-c3ccc(C(C)=O)s3)c2O1` (centres unmarked) [CBK306945], 90.3%.
Regarding `Cc1cccc(OCCNC(=O)CN2CCCC2c2cnn(C)c2)c1` (centres unmarked) [CBK305826], the viability at 28.5 h, 10 µM is 81%.

The viability is a read-out of living cells in per cent, often relative to untreated cells.
